Values of other authors in patent US20080057086A1, “COLON-TARGETED ORAL FORMULATIONS OF CYTIDINE ANALOGS” (PHARMION CORPORATION, priority 2006, published 2008).

Test system: total hemoglobin, fetal hemoglobin and F cells
Conditions: sickle cell patients; oral THU 200 mg/d alone; cited from earlier work

## O=C1NC(O)CCN1[C@@H]1O[C@H](CO)[C@@H](O)[C@H]1O (stereo partly shown) [THU, tetrahydrouridine]
  F reticulocyte production: did not result in increased F reticulocyte production
